Data from paper PMC3039983, “Cloning, Expression, and Characterization of Thermotolerant Manganese Superoxide Dismutase from Bacillus sp. MHS47” (International Journal of Molecular Sciences, 2011).

Biological target: T1, MnSOD47 (Bacillus sp. MHS47, UniProt E9LK91)
T1 construct: gene sodA
Experiment: xanthine oxidase/hypoxanthine-tetrazolium SOD assay, […] nm
Format: biochemical
Settings: superoxide generated in situ by xanthine oxidase/hypoxanthine; indirect read-out

T1 sequence (E9LK91 1-203 limits assumed): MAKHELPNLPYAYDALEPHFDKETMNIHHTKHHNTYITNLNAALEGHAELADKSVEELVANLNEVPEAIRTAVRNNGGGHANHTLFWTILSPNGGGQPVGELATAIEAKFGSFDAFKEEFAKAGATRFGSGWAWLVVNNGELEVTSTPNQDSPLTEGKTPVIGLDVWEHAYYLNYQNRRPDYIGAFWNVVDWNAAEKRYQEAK

Q: `[O]O` [superoxide radical] was tested. Which “xanthine oxidase/hypoxanthine-tetrazolium SOD assay, 450 nm” value did it give?
A: coupled to a tetrazolium salt to detect the reduction in superoxide radicals
